# Legend:
# Experiment in all cases: NCI-60 SRB screen
# Format in all cases: cell-based
# SN12C = tested on: SN12C
# Source text: (§1) Supplementary Figure l egend
# (§2) 10μ M of CTR-20 was used to examine the drug’s efficac y against the NC I-60 cancer cell li nes including: six leukemia cell lines, nine non- small cell lung cancer cell lines, seven color ect al cancer cell lines, six CNS cancer cell lines, nine melanoma cell lines, seven ovari an can cer cell lines, seven ren al can cer cell lines, two prostate cancer cell lines and six breast cancer cell lines. The scr eenin g was car r ied out b y the US National Cancer Institute (NC I) us i n g a sulforhodamine B (SRB) colorimetric assay. […]
# (§3) out by the NC I using five different doses of CTR -20.
# A498 = tested on: A498
# Source text: as §1, §2, §3
# CCRF-CEM = tested on: CCRF-CEM
# Source text: as §1, §2, §3
# HOP-62 = tested on: HOP-62
# Source text: as §1, §2, §3
# SK-OV-3 = tested on: SK-OV-3
# Source text: as §1, §2, §3
# NCI-H522 = tested on: NCI-H522
# Source text: as §1, §2, §3
# MDA-MB-435 = tested on: MDA-MB-435
# Source text: as §1, §2, §3
# MCF7 = tested on: MCF7
# Source text: as §1, §2, §3
# 786-0 = tested on: 786-0
# Source text: as §1, §2, §3
# M14 = tested on: M14
# Source text: as §1, §2, §3
# OVCAR-4 = tested on: OVCAR-4
# Source text: as §1, §2, §3
# U251 = tested on: U251
# Source text: as §1, §2, §3
# [1] = Homo sapiens, read-out: LC50 (the source's name)
compound,measurement,setting,value
"COc1ccc2[nH]c(=O)c(/C=C/C(=O)c3ccccc3OC)cc2c1 [CTR-20, (E)-6-Methoxy-3-(3-(2-methoxyphenyl)-3-oxoprop-1-enyl) quinolin-2(1H)-one]",Log10GI50,SN12C,-6.27 Molar
same,Log10LC50,SN12C,-4.44 Molar
same,Log10TGI,SN12C,-4.99 Molar
same,TGI,SN12C,1.03E-5 Molar
same,Growth Percent,SN12C; 1.00E-5 Molar,8.57%
same,GI50,SN12C; Homo sapiens,0.537 µM
same,CC50,SN12C; [1],36.7 µM
same,Percent Growth,SN12C; Log10 Concentration -4.0,-89%
same,Percent Growth,SN12C; Log10 Concentration -5.0,1%
same,Percent Growth,SN12C; Log10 Concentration -6.0,32%
same,Percent Growth,SN12C; Log10 Concentration -7.0,100%
same,Percent Growth,SN12C; Log10 Concentration -8.0,102%
same,Log10GI50,A498,-6.18 Molar
same,Log10LC50,A498,-4.63 Molar
same,Log10TGI,A498,-5.34 Molar
same,TGI,A498,4.55E-6 Molar
same,Growth Percent,A498; 1.00E-5 Molar,21.71%
same,GI50,A498; Homo sapiens,0.656 µM
same,CC50,A498; [1],23.6 µM
same,Percent Growth,A498; Log10 Concentration -4.0,-100%
same,Percent Growth,A498; Log10 Concentration -5.0,-20%
same,Percent Growth,A498; Log10 Concentration -6.0,39%
same,Percent Growth,A498; Log10 Concentration -7.0,99%
same,Percent Growth,A498; Log10 Concentration -8.0,97%
same,Log10GI50,CCRF-CEM,-6.41 Molar
same,Log10LC50,CCRF-CEM,> -4.00 Molar
same,Log10TGI,CCRF-CEM,> -4.00 Molar
same,TGI,CCRF-CEM,> 1.00E-4 Molar
same,Growth Percent,CCRF-CEM; 1.00E-5 Molar,7.53%
same,GI50,CCRF-CEM; Homo sapiens,0.392 µM
same,LC50 (concentration causing 50% net cell kill),CCRF-CEM; Homo sapiens,> 100 µM
same,Percent Growth,CCRF-CEM; Log10 Concentration -4.0,1%
same,Percent Growth,CCRF-CEM; Log10 Concentration -5.0,6%
same,Percent Growth,CCRF-CEM; Log10 Concentration -6.0,19%
same,Percent Growth,CCRF-CEM; Log10 Concentration -7.0,95%
same,Percent Growth,CCRF-CEM; Log10 Concentration -8.0,99%
same,Log10GI50,HOP-62,-5.91 Molar
same,Log10LC50,HOP-62,-4.63 Molar
same,Log10TGI,HOP-62,-5.27 Molar
same,TGI,HOP-62,5.32E-6 Molar
same,Growth Percent,HOP-62; 1.00E-5 Molar,8.67%
same,GI50,HOP-62; Homo sapiens,1.24 µM
same,LC50,HOP-62; Homo sapiens,23.7 µM
same,Percent Growth,HOP-62; Log10 Concentration -4.0,-97%
same,Percent Growth,HOP-62; Log10 Concentration -5.0,-22%
same,Percent Growth,HOP-62; Log10 Concentration -6.0,58%
same,Percent Growth,HOP-62; Log10 Concentration -7.0,95%
same,Percent Growth,HOP-62; Log10 Concentration -8.0,89%
same,Log10GI50,SK-OV-3,-5.65 Molar
same,Log10LC50,SK-OV-3,-4.44 Molar
same,Log10TGI,SK-OV-3,-4.89 Molar
same,TGI,SK-OV-3,1.28E-5 Molar
same,Growth Percent,SK-OV-3; 1.00E-5 Molar,6.12%
same,GI50,SK-OV-3; Homo sapiens,2.23 µM
same,CC50,SK-OV-3; [1],36.2 µM
same,Percent Growth,SK-OV-3; Log10 Concentration -4.0,-99%
same,Percent Growth,SK-OV-3; Log10 Concentration -5.0,12%
same,Percent Growth,SK-OV-3; Log10 Concentration -6.0,70%
same,Percent Growth,SK-OV-3; Log10 Concentration -7.0,99%
same,Percent Growth,SK-OV-3; Log10 Concentration -8.0,87%
same,Log10GI50,NCI-H522,-6.45 Molar
same,Log10LC50,NCI-H522,-4.89 Molar
same,Log10TGI,NCI-H522,-5.69 Molar
same,TGI,NCI-H522,2.06E-6 Molar
same,Growth Percent,NCI-H522; 1.00E-5 Molar,3.93%
same,GI50,NCI-H522; Homo sapiens,0.352 µM
same,LC50 (concentration causing 50% net cell kill),NCI-H522; Homo sapiens,12.9 µM
same,Percent Growth,NCI-H522; Log10 Concentration -4.0,-88%
same,Percent Growth,NCI-H522; Log10 Concentration -5.0,-45%
same,Percent Growth,NCI-H522; Log10 Concentration -6.0,21%
same,Percent Growth,NCI-H522; Log10 Concentration -7.0,85%
same,Percent Growth,NCI-H522; Log10 Concentration -8.0,87%
same,Log10GI50,MDA-MB-435,-7.25 Molar
same,Log10LC50,MDA-MB-435,-4.66 Molar
same,Log10TGI,MDA-MB-435,-6.56 Molar
same,TGI,MDA-MB-435,2.75E-7 Molar
same,Growth Percent,MDA-MB-435; 1.00E-5 Molar,-10.05%
same,GI50,MDA-MB-435; Homo sapiens,0.0564 µM
same,CC50,MDA-MB-435; [1],21.9 µM
same,Percent Growth,MDA-MB-435; Log10 Concentration -4.0,-97%
same,Percent Growth,MDA-MB-435; Log10 Concentration -5.0,-26%
same,Percent Growth,MDA-MB-435; Log10 Concentration -6.0,-46%
same,Percent Growth,MDA-MB-435; Log10 Concentration -7.0,36%
same,Percent Growth,MDA-MB-435; Log10 Concentration -8.0,92%
same,Log10GI50,MCF7,-6.51 Molar
same,Log10LC50,MCF7,> -4.00 Molar
same,Log10TGI,MCF7,-5.13 Molar
same,TGI,MCF7,7.48E-6 Molar
same,Growth Percent,MCF7; 1.00E-5 Molar,10.02%
same,GI50,MCF7; Homo sapiens,0.312 µM
same,CC50,MCF7; [1],> 100 µM
same,Percent Growth,MCF7; Log10 Concentration -4.0,-44%
same,Percent Growth,MCF7; Log10 Concentration -5.0,-2%
same,Percent Growth,MCF7; Log10 Concentration -6.0,16%
same,Percent Growth,MCF7; Log10 Concentration -7.0,83%
same,Percent Growth,MCF7; Log10 Concentration -8.0,86%
same,Log10GI50,786-0,-6.42 Molar
same,Log10LC50,786-0,-5.29 Molar
same,Log10TGI,786-0,-5.81 Molar
same,TGI,786-0,1.56E-6 Molar
same,Growth Percent,786-0; 1.00E-5 Molar,8.21%
same,GI50,786-0; Homo sapiens,0.378 µM
same,CC50,786-0; [1],5.11 µM
same,Percent Growth,786-0; Log10 Concentration -4.0,-97%
same,Percent Growth,786-0; Log10 Concentration -5.0,-78%
same,Percent Growth,786-0; Log10 Concentration -6.0,19%
same,Percent Growth,786-0; Log10 Concentration -7.0,93%
same,Percent Growth,786-0; Log10 Concentration -8.0,91%
same,Log10GI50,M14,-6.56 Molar
same,Log10LC50,M14,-4.62 Molar
same,Log10TGI,M14,-5.85 Molar
same,TGI,M14,1.41E-6 Molar
same,Growth Percent,M14; 1.00E-5 Molar,13.82%
same,GI50,M14; Homo sapiens,0.278 µM
same,CC50,M14; [1],24 µM
same,Percent Growth,M14; Log10 Concentration -4.0,-93%
same,Percent Growth,M14; Log10 Concentration -5.0,-23%
same,Percent Growth,M14; Log10 Concentration -6.0,4%
same,Percent Growth,M14; Log10 Concentration -7.0,87%
same,Percent Growth,M14; Log10 Concentration -8.0,92%
same,Log10GI50,OVCAR-4,-5.39 Molar
same,Log10LC50,OVCAR-4,-4.11 Molar
same,Log10TGI,OVCAR-4,-4.63 Molar
same,TGI,OVCAR-4,2.32E-5 Molar
same,Growth Percent,OVCAR-4; 1.00E-5 Molar,50.80%
same,GI50,OVCAR-4; Homo sapiens,4.07 µM
same,CC50,OVCAR-4; [1],76.9 µM
same,Percent Growth,OVCAR-4; Log10 Concentration -4.0,-61%
same,Percent Growth,OVCAR-4; Log10 Concentration -5.0,35%
same,Percent Growth,OVCAR-4; Log10 Concentration -6.0,73%
same,Percent Growth,OVCAR-4; Log10 Concentration -7.0,95%
same,Percent Growth,OVCAR-4; Log10 Concentration -8.0,94%
same,Log10GI50,U251,-6.28 Molar
same,Log10LC50,U251,-5.38 Molar
same,Log10TGI,U251,-5.77 Molar
same,TGI,U251,1.70E-6 Molar
same,Growth Percent,U251; 1.00E-5 Molar,5.14%
same,GI50,"U251; Homo sapiens, U-251",0.521 µM
same,LC50,"U251; Homo sapiens, U-251",4.21 µM
same,Percent Growth,U251; Log10 Concentration -4.0,-99%
same,Percent Growth,U251; Log10 Concentration -5.0,-98%
same,Percent Growth,U251; Log10 Concentration -6.0,29%
same,Percent Growth,U251; Log10 Concentration -7.0,103%
same,Percent Growth,U251; Log10 Concentration -8.0,102%

# From paper PMC5578999, “Novel quinolone chalcones targeting colchicine-binding pocket kill multidrug-resistant cancer cells by inhibiting tubulin activity and MRP1 function” (Scientific Reports, 2017)
